The target in one experiment is Bcl-2 protein (histag-Bcl-2, UniProtKB P10415) (Homo sapiens (Human), UniProt P10415). The experiment in a line: Inhibition of Bcl-2 by the fluorescence polarisation technique. Format: binding. The settings on record: incubation for 2 hours, read-out: IC50 (nM) Bcl-2 FP. In outline: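 In pH 7.4 buffer (Hepes 10 mM, NaCl 150 mM, Tween20 0.05%), test compounds at increasing concentrations competed with a fluorescein peptide (1.00×10^−8 M final) for histag-Bcl-2 (2.50×10^−8 M final). Readout was fluorescence polarisation after a 2 h incubation.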
Bcl-2 protein, sequence (P10415 whole entry): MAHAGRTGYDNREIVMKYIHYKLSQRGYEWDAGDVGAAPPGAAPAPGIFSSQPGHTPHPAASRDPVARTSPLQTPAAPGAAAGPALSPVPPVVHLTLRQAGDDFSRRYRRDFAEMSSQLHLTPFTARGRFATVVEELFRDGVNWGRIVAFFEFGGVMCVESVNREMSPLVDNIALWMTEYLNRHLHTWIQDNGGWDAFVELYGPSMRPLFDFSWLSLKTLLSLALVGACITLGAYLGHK
On the technique in general: In fluorescence polarisation assays a small probe gives low polarisation when free and higher when bound to something large.

Experiment [1] deals with RS4;11 leukaemia tumour line. The experiment in a line: In vitro cytotoxicity (Microculture Tetrazolium Assay). Format: cell-based. The settings on record: RS4;11 cells, exposed for 48 hours, cell viability, read-out: IC50 (nM) MTT RS4;11. The protocol:
The cytotoxicity studies were carried out on the RS4;11 leukaemia tumour line.
The cells are distributed onto microplates and exposed to the test compounds for 48 hours.
The cell viability is then quantified by a colorimetric assay, the Microculture Tetrazolium Assay (Cancer Res., 1987, 47, 939-942).

Molecules are shown by their SMILES. Where a name gives a salt, the structure may show the parent alone. Read-outs that look alike come from different tables or passages of the source.

The IC50 is the point on the concentration scale where inhibition reaches its midpoint. For the compound `Cc1c(C(=O)N(C)c2ccc(O)cc2)cc(-c2ccc(CNS(=O)(=O)CCc3ccc(F)cc3)cc2C(=O)N2Cc3ccccc3C[C@H]2C)n1C` [Example 59, 5-(4-[({[2-(4-Fluorophenyl)ethyl]sulphonyl}amino)methyl]-2-{[(3R)-3-methyl-3,4-dihydroisoquinolin-2(1H)-yl]carbonyl}phenyl)-N-(4-hydroxyphenyl)-N,1,2-trimethyl-1H-pyrrole-3-carboxamide], the IC50 at Bcl-2 protein is 134 nM; in experiment [1] (Homo sapiens, RS4-11, 48 h), more than 600 nM.
Taken in the same sequence, the figures for `Cc1c(C(=O)N(c2ccncc2)c2ccc(O)cc2)cc(-c2cc3c(cc2C(=O)N2Cc4ccccc4C[C@H]2C)OCO3)n1C` [Example 61, N-(4-Hydroxyphenyl)-1,2-dimethyl-5-(6-{[(3R)-3-methyl-3,4-dihydroisoquinolin-2(1H)-yl]carbonyl}-1,3-benzodioxol-5-yl)-N-(pyridin-4-yl)-1H-pyrrole-3-carboxamide hydrochloride] were 4.5 nM and 37.8 nM.
For `COc1cc(C(=O)N2Cc3ccccc3C[C@H]2C)c(-c2cc(C(=O)N(c3ccc(O)cc3)c3cnn(C)c3)c(C)n2C)cc1F` [Example 62, 5-(5-Fluoro-4-methoxy-2-{[(3R)-3-methyl-3,4-dihydroisoquinolin-2(1H)-yl]carbonyl}phenyl)-N-(4-hydroxyphenyl)-1,2-dimethyl-N-(1-methyl-1H-pyrazol-4-yl)-1H-pyrrole-3-carboxamide] the same measures were 14.3 nM and 127 nM.
Taken in the same sequence, the figures for `Cc1c(C(=O)N(c2ccc(O)cc2)c2cnc3c(ccn3C)c2)cc(-c2cc(Cl)ccc2C(=O)N2Cc3ccccc3C[C@H]2C)n1C` [Example 63, 5-(5-Chloro-2-{[(3R)-3-methyl-3,4-dihydroisoquinolin-2(1H)-yl]-carbonyl}phenyl)-N-(4-hydroxyphenyl)-1,2-dimethyl-N-(1-methyl-1H-pyrrolo[2,3-b]-pyridin-5-yl)-1H-pyrrole-3-carboxamide] were 5.1 nM and 11.2 nM.
As to `Cc1c(C(=O)N(c2ccccc2)c2cnc3c(ccn3C)c2)cc(-c2cc3c(cc2C(=O)N2Cc4ccccc4C[C@H]2CN2CCOCC2)OCO3)n1C` [Example 65, 1,2-Dimethyl-N-(1-methyl-1H-pyrrolo[2,3-b]pyridin-5-yl)-5-(6-{[(3S)-3-(morpholin-4-ylmethyl)-3,4-dihydroisoquinolin-2(1H)-yl]carbonyl}-1,3-benzodioxol-5-yl)-N-phenyl-1H-pyrrole-3-carboxamide hydrochloride], the IC50 was determined as 21.9 nM at Bcl-2 protein and 113 nM in experiment [1] (Homo sapiens, RS4-11, 48 h).
As for `Cc1ccc(OC(=O)NCc2ccc(-c3cc(C(=O)N(C)c4ccc(O)cc4)c(C)n3C)c(C(=O)N3Cc4ccccc4C[C@H]3C)c2)cc1` [Example 66, 4-Methylphenyl (4-{4-[(4-hydroxyphenyl)(methyl)carbamoyl]-1,5-dimethyl-1H-pyrrol-2-yl}-3-{[(3R)-3-methyl-3,4-dihydroisoquinolin-2(1H)-yl]-carbonyl}benzyl)carbamate], the IC50 at Bcl-2 protein was 16.9 nM; in experiment [1] (Homo sapiens), 241 nM.
Consider `Cc1c(C(=O)N(c2ccc(O)cc2)c2cnn(C)c2)cc(-c2cc(F)c(O)cc2C(=O)N2Cc3ccccc3C[C@H]2C)n1C` [Example 68, 5-(5-Fluoro-4-hydroxy-2-{[(3R)-3-methyl-3,4-dihydroisoquinolin-2(1H)-yl]carbonyl}phenyl)-N-(4-hydroxyphenyl)-1,2-dimethyl-N-(1-methyl-1H-pyrazol-4-yl)-1H-pyrrole-3-carboxamide], for which the IC50 is 2.1 nM on Bcl-2 protein and 20.7 nM in experiment [1] (Homo sapiens, RS4-11, 48 h).
Taken in the same sequence, the figures for `Cc1c(C(=O)N(c2ccc(O)cc2)c2cnc3c(ccn3C)c2)cc(-c2cc3c(cc2C(=O)N2Cc4ccccc4C[C@H]2CN2CCN(C)CC2)OCO3)n1C` [Example 69, N-(4-Hydroxyphenyl)-1,2-dimethyl-5-(6-{[(3S)-3-[(4-methylpiperazin-1-yl)methyl]-3,4-dihydroisoquinolin-2(1H)-yl]carbonyl}-1,3-benzodioxol-5-yl)-N-(1-methyl-1H-pyrrolo[2,3-b]pyridin-5-yl)-1H-pyrrole-3-carboxamide hydrochloride] were 5.3 nM and 3.68 nM.
Regarding `Cc1c(C(=O)N(c2ccncc2)c2ccc(O)cc2)cc(-c2cc3c(cc2C(=O)N2Cc4ccccc4C[C@H]2CN2CCN(C)CC2)OCO3)n1C` [Example 70, N-(4-Hydroxyphenyl)-1,2-dimethy-5-(6-{[(3S)-3-[(4-methylpiperazin-1-yl)methyl]-3,4-dihydroisoquinolin-2(1H)-yl]carbonyl}4,3-benodioxol-5-yl)-N-(pyridin-4-yl)-1H-pyrrole-3-carboxamide hydrochloride], the IC50 on Bcl-2 protein was found to be 8.5 nM; in experiment [1], 63.5 nM.
In the case of `Cc1c(C(=O)N(c2ccc(O)cc2)c2ccc3c(c2)ncn3C)cc(-c2cc(Cl)ccc2C(=O)N2Cc3ccccc3C[C@H]2CN2CCOCC2)n1C` [Example 72, 5-(5-Chloro-2-{[(3S)-3-(morpholin-4-ylmethyl)-3,4-dihydroisoquinolin-2(1H)-yl]carbonyl}phenyl)-N-(4-hydroxyphenyl)-1,2-dimethyl-N-(1-methyl-1H-benzimidazol-5-yl)-1H-pyrrole-3-carboxamide], the IC50 on Bcl-2 protein is 7.7 nM; in experiment [1] (Homo sapiens, RS4-11, 48 h) it was 43.6 nM.
For `Cc1c(C(=O)N(c2ccncc2)c2ccc(O)cc2)cc(-c2cc3c(cc2C(=O)N2Cc4ccccc4C[C@H]2CN2CCOCC2)OCO3)n1C` [Example 73, N-(4-Hydroxyphenyl)-1,2-dimethyl-5-(6-{[(3S)-3-(morpholin-4-ylmethyl)-3,4-dihydroisoquinolin-2(1H)-yl]carbonyl}-1,3-benzodioxol-5-yl)-N-(pyridin-4-yl)-1H-pyrrole-3-carboxamide dihydrochloride] the same measures were 8 nM and 42.6 nM.
As to `Cc1c(C(=O)N(c2ccncc2)c2ccc(O)cc2)cc(-c2cc(Cl)ccc2C(=O)N2Cc3ccccc3C[C@H]2CN2CCOCC2)n1C` [Example 74, 5-(5-Chloro-2-{[(3S)-3-(morpholin-4-ylmethyl)-3,4-dihydroisoquinolin-2(1H)-yl]carbonyl}phenyl)-N-(4-hydroxyphenyl)-1,2-dimethyl-N-(pyridin-4-yl)-1H-pyrrole-3-carboxamide hydrochloride], the IC50 stood at 4 nM at Bcl-2 protein and 45.4 nM in experiment [1] (Homo sapiens, RS4-11, 48 h).
For `Cn1cc(N(C(=O)c2cc(-c3cc4c(cc3C(=O)N3Cc5ccccc5C[C@H]3CN3CCOCC3)OCO4)n(C)c2C(F)(F)F)c2ccc(O)cc2)cn1` [Example 75, N-(4-Hydroxyphenyl)-1-methyl-N-(1-methyl-4H-pyrazol-4-yl)-5-(6-{[(3S)-3-(morpholin-4-ylmethyl)-3,4-dihydroisoquinolin-2(1TH-yl]carbonyl}-1,3-benzodioxol-5-yl)-2-(trifluoromethyl)-1H-pyrrole-3-carboxamide hydrochloride], the IC50 came out at 52.9 nM on Bcl-2 protein and 367 nM in experiment [1].
Take `C[C@@H]1Cc2ccccc2CN1C(=O)c1cc2c(cc1-c1cc(C(=O)N(c3ccc(O)cc3)c3cnn(C)c3)c(CN3CCOCC3)n1C)OCO2` [Example 82, N-(4-Hydroxyphenyl)-1-methyl-5-(6-{[(3R)-3-methyl-3,4-dihydroisoquinolin-2(1H)-yl]carbonyl}-1,3-benzodioxol-5-yl)-N-(1-methyl-1H-pyrazol-4-yl)-2-(morpholin-4-ylmethyl)-1H-pyrrole-3-carboxamide]: the IC50 at Bcl-2 protein turned out to be 19.5 nM; in experiment [1] (Homo sapiens, RS4-11, 48 h), 427 nM.
Regarding `COCCc1c(C(=O)N(c2ccc(O)cc2)c2cnc3c(ccn3C)c2)cc(-c2cc3c(cc2C(=O)N2Cc4ccccc4C[C@H]2CN2CCOCC2)OCO3)n1C` [Example 88, N-(4-Hydroxyphenyl)-2-(2-methoxyethyl)-1-methyl-N-(1-methyl-1H-pyrrolo[2,3-b]pyridin-5-yl)-5-(6-{[(3S)-3-(morpholin-4-ylmethyl)-3,4-dihydroisoquinolin-2(1H)-yl]carbonyl}4,3-benzodioxol-5-yl)-1H-pyrrole-3-carboxamide hydrochloride], the IC50 on Bcl-2 protein amounted to 15.9 nM; in experiment [1], 69.6 nM.
Take `CCn1c(-c2cc3c(cc2C(=O)N2Cc4ccccc4C[C@H]2CN2CCOCC2)OCO3)cc(C(=O)N(c2ccc(O)cc2)c2cnn(C)c2)c1C` [Example 92, 1-Ethyl-N-(4-hydroxyphenyl)-2-methyl-N-(1-methyl-1H-pyrazol-4-yl)-5-(6-{[(3S)-3-(morpholin-4-ylmethyl)-3,4-dihydroisoquinolin-2(1H)-yl]carbonyl}-1,3-benzodioxol-5-yl)-1H-pyrrole-3-carboxamide hydrochloride]: the IC50 on Bcl-2 protein was 8.4 nM; in experiment [1] (Homo sapiens, RS4-11, 48 h) it was 37.8 nM.
For `COCCn1c(-c2cc3c(cc2C(=O)N2Cc4ccccc4C[C@H]2CN2CCOCC2)OCO3)cc(C(=O)N(c2ccc(O)cc2)c2cnn(C)c2)c1C` [Example 93, N-(4-Hydroxyphenyl)-1-(2-methoxyethyl)-2-methyl-N-(1-methyl-1H-pyrazol-4-yl)-5-(6-{[(3S)-3-(morpholin-4-ylmethyl)-3,4-dihydroisoquinolin-2(1H)-yl]carbonyl}-1,3-benzodioxol-5-yl)-1H-pyrrole-3-carboxamide hydrochloride] the same measures were 19.7 nM and 368 nM.
As for `Cc1c(C(=O)N(c2ccc(O)cc2)c2cnn(C)c2)cc(-c2cc3c(cc2C(=O)N2Cc4ccccc4C[C@H]2CN2CCOCC2)OCO3)n1CCF` [Example 94, 1-(2-Fluoroethyl)-N-(4-hydroxyphenyl)-2-methyl-N-(1-methyl-1H-pyrazol-4-yl)-5-(6-{[(3S)-3-(morpholin-4-ylmethyl)-3,4-dihydroisoquinolin-2(1H)-yl]carbonyl}-1,3-benzodioxol-5-yl)-1H-pyrrole-3-carboxamide hydrochloride], the IC50 on Bcl-2 protein came to 8.6 nM; in experiment [1] (Homo sapiens, RS4-11, 48 h), 104 nM.

(Values after patent publication US9108983B2, “Pyrrole compounds, a process for their preparation and pharmaceutical compositions containing them” (LES LABORATOIRES SERVIER, priority 2013, dated 2015).)
